What was measured:
[1] = biological target: T1, biotinylated mouse siglec-2-Fc-Avi (Mus musculus, UniProt P35329); assay: SPR binding to mouse siglec-2/CD22; settings: steady-state analysis, read-out: Mouse CD22 affinity
T1 construct: made in house
T1 sequence (P35329 22-708 limits assumed): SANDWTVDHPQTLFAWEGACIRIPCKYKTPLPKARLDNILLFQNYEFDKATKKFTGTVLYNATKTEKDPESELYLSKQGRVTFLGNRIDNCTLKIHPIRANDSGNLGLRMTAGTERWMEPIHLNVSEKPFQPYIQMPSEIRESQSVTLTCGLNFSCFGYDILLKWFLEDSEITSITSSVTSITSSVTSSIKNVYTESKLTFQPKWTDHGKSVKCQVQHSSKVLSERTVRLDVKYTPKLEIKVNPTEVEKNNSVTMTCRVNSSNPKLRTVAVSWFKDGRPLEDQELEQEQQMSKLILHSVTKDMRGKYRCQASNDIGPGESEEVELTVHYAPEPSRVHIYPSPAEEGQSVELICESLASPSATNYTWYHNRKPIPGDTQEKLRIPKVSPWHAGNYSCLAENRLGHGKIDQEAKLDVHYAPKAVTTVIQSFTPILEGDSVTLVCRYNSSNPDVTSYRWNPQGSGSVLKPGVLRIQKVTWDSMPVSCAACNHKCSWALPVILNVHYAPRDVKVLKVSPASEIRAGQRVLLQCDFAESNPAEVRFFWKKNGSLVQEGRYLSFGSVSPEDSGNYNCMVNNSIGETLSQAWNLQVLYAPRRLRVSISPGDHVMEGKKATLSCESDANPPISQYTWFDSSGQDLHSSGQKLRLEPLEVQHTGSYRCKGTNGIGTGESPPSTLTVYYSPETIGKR
Method: (§1) The following proteins were used for CD22 ligand binding: biotinylated human siglec-2/CD22 protein-His-Avitag (Acro Biosystems, Cat #SI2-H82E3), biotinylated mouse siglec-2-Fc-Avi (in-house production), and recombinant cynomolgus siglec-2/CD22 His-tag (R&D systems, Cat #9864-SL-050). Prior to immobilization, CD22 proteins were treated with SialoExo (Genovis, Cat #G1-SM1-020) for 4 hours at 37° C. to remove native sialic acid residues.
(§2) Capture of biotinylated CD22 constructs was performed using a Cytiva SA chip (BR100398) on a Biacore 8K instrument. Human siglec 2 was immobilized on channels 1-4 and mouse siglec 2 on channels 5-8 on the active flow cell (2) and the reference flow cell (1) was immobilized with biotinylated human FGFR2 Fc Avi, an unrelated protein, to account for any nonspecific binding. Human siglec 2 and Mouse siglec 2 were diluted in running buffer to 20 μg/mL and injected on the active flow cell (2) for 300 seconds at 5 μL/min, yielding about 3500 RU of captured constructs.
(§3) Binding experiments of siglec-ligand conjugated proteins or Siglec ligand compounds were performed on the surfaces prepared above in 10 mM HEPES, 150 mM NaCl, 0.05% Tween-20, pH 7.5, 1% DMSO as the running buffer. Compounds were serially diluted in running buffer from 50 μM to 97.6 nM and injected over both the reference and active flow cells for 90 seconds at 30 μL/min. The compounds were then allowed to dissociate from the surface for 120 seconds. No regeneration was required as the compounds completely dissociated from the surface after 30 seconds. Solvent correction was performed using 0.5, 1, 1.5, and 2% DMSO spike into running buffer without DMSO. Data was analyzed using steady-state analysis in Biacore Insight Evaluation Software, version 3.0.

[2] = biological target: T2, biotinylated human siglec-2/CD22 protein-His-Avitag (Homo sapiens, UniProt P20273); assay: SPR binding to human siglec-2/CD22; settings: steady-state analysis, read-out: Human CD22 affinity
T2 construct: purchased Acro Biosystems SI2-H82E3
T2 sequence (P20273 20-847): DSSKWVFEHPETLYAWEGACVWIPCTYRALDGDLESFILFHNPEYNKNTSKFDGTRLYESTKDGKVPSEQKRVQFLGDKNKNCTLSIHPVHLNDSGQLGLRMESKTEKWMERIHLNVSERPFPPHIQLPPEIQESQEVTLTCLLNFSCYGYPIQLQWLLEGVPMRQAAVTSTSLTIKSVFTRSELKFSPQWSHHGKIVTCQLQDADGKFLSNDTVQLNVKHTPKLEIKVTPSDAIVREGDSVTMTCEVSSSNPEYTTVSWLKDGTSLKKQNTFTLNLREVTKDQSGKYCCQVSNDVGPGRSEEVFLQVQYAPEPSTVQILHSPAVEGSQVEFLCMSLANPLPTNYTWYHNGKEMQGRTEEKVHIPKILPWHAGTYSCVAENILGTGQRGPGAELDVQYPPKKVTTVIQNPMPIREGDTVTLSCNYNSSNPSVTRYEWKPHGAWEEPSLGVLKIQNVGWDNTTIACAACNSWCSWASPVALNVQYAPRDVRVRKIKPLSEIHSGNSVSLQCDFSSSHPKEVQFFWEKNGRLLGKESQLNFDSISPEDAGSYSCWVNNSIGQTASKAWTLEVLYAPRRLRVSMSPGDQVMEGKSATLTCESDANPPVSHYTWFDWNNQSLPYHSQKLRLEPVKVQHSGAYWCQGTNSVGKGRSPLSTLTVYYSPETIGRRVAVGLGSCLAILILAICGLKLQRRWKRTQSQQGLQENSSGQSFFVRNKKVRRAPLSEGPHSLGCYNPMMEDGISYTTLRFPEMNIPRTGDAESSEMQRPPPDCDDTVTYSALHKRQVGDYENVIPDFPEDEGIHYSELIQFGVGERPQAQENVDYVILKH
Method: as §1, §2, §3

[3] = biological target: recombinant cynomolgus siglec-2/CD22 His-tag (Macaca fascicularis, UniProt A0A2K5WCZ6); assay: SPR binding to cynomolgus siglec-2/CD22; settings: steady-state analysis, read-out: Cyno CD22 affinity
Method: as §1
Surface preparation for cyno CD22 protein consisted of amine coupling to Cytiva CM5 chip (Cytiva, Cat #BR100530) using the Cytiva amine coupling kit Type 2 (Cytiva, Cat #BR100633). Following the standard amine coupling protocols, EDC and NHS from the kit were mixed 1:1 and injected over flow cells 1 and 2. Cyno CD22 was then immobilized by injecting 10 μg/mL in Sodium Acetate, pH 5.5 onto flow cell (2) for 420 seconds at 10 uL/min, yielding approximately 2500 RU of captured protein. Any active carboxy groups were then capped with 1M Ethanolamine, pH 8.5 for 420 s on flow cells 1 and 2.
as §3

Chain of recombinant cynomolgus siglec-2/CD22 His-tag (A0A2K5WCZ6 entry or part of it): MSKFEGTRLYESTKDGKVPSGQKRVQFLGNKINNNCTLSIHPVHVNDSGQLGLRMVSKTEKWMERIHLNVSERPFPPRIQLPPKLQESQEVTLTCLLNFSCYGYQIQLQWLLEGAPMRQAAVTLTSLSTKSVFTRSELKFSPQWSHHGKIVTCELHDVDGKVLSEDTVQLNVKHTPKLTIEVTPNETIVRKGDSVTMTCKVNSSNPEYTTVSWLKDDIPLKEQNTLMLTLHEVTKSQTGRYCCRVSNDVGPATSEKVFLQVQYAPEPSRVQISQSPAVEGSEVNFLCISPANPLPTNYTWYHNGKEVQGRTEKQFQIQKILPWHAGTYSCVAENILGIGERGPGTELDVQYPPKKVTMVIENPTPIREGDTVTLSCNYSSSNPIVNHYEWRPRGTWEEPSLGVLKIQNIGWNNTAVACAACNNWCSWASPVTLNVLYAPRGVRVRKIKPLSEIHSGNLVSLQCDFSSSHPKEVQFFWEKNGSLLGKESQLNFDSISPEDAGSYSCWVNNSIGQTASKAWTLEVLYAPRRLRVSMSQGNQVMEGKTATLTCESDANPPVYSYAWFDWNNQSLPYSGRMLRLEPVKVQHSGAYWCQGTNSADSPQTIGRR

CCCNC(=O)CCOCCOCCOCCOCCn1cc(-c2ccc(CC(=O)NC[C@@H](O)[C@@H](O)[C@@H]3O[C@@](OCCCCCCNc4c(NCCOC)c(=O)c4=O)(C(=O)O)C[C@H](O)[C@H]3NC(=O)CO)cc2)nn1 [Compound 53, (2R,4S,5R,6R)-6-((1R,2R)-1,2-dihydroxy-3-(2-(4-(1-(15-oxo-3,6,9,12-tetraoxa-16-azanonadecyl)-1H-1,2,3-triazol-4-yl)phenyl)acetamido)propyl)-4-hydroxy-5-(2-hydroxyacetamido)-2-((6-((2-((2-methoxyethyl)amino)-3,4-dioxocyclobut-1-en-1-yl)amino)hexyl)oxy)tetrahydro-2H-pyran-2-carboxylic acid]
Kd [1]: 1000 to 10000 nM
Kd [2]: < 1000 nM
Kd [3]: < 1000 nM

CCCNC(=O)CCOCCOCCOCCn1cc(CO[C@H]2C[C@](OCc3ccccc3)(C(=O)O)O[C@@H]([C@H](O)[C@H](O)CNC(=O)Cc3ccc(Cl)cc3)[C@@H]2NC(=O)CO)nn1 [Compound 19, (2R,4S,5R,6R)-2-(benzyloxy)-6-((1R,2R)-3-(2-(4-chlorophenyl)acetamido)-1,2-dihydroxypropyl)-5-(2-hydroxyacetamido)-4-((1-(12-oxo-3,6,9-trioxa-13-azahexadecyl)-1H-1,2,3-triazol-4-yl)methoxy)tetrahydro-2H-pyran-2-carboxylic acid]
Kd [1]: 1000 to 10000 nM
Kd [2]: 1000 to 10000 nM
Kd [3]: 1000 to 10000 nM

CCCNC(=O)CCOCCOCCOCCOCCn1cc(-c2ccc(CC(=O)NC[C@@H](O)[C@@H](O)[C@@H]3O[C@@](OCCCCCCn4cc(COCCOC)nn4)(C(=O)O)C[C@H](O)[C@H]3NC(=O)CO)cc2)nn1 [Compound 55, (2R,4S,5R,6R)-6-((1R,2R)-1,2-dihydroxy-3-(2-(4-(1-(15-oxo-3,6,9,12-tetraoxa-16-azanonadecyl)-1H-1,2,3-triazol-4-yl)phenyl)acetamido)propyl)-4-hydroxy-5-(2-hydroxyacetamido)-2-((6-(4-((2-methoxyethoxy)methyl)-1H-1,2,3-triazol-1-yl)hexyl)oxy)tetrahydro-2H-pyran-2-carboxylic acid]
Kd [1]: 1000 to 10000 nM
Kd [2]: < 1000 nM
Kd [3]: 1000 to 10000 nM

C#Cc1ccc(CC(=O)NC[C@@H](O)[C@@H](O)[C@@H]2O[C@@](OCCCCCCNc3c(NCCOC)c(=O)c3=O)(C(=O)O)C[C@H](O)[C@H]2NC(=O)CO)cc1 [Compound 26, (2R,4S,5R,6R)-6-((1R,2R)-3-(2-(4-ethynylphenyl)acetamido)-1,2-dihydroxypropyl)-4-hydroxy-5-(2-hydroxyacetamido)-2-((6-((2-((2-methoxyethyl)amino)-3,4-dioxocyclobut-1-en-1-yl)amino)hexyl)oxy)tetrahydro-2H-pyran-2-carboxylic acid]
Kd [1]: < 1000 nM
Kd [2]: < 1000 nM

C#CCOc1ccc(CC(=O)NC[C@@H](O)[C@@H](O)[C@@H]2O[C@@](OCc3ccccc3)(C(=O)O)C[C@H](O)[C@H]2NC(=O)CO)cc1 [Compound 4, (2R,4S,5R,6R)-2-(benzyloxy)-6-((1R,2R)-1,2-dihydroxy-3-(2-(4-(prop-2-yn-1-yloxy)phenyl)acetamido)propyl)-4-hydroxy-5-(2-hydroxyacetamido)tetrahydro-2H-pyran-2-carboxylic acid]
Kd [1]: 1000 to 10000 nM
Kd [2]: 1000 to 10000 nM

C#Cc1ccc(CC(=O)NC[C@@H](O)[C@@H](O)[C@@H]2O[C@@](OCCCCCCNC(=O)CCCC)(C(=O)O)C[C@H](O)[C@H]2NC(=O)CO)cc1 [Compound 29, (2R,4S,5R,6R)-6-((1R,2R)-3-(2-(4-ethynylphenyl)acetamido)-1,2-dihydroxypropyl)-4-hydroxy-5-(2-hydroxyacetamido)-2-((6-pentanamidohexyl)oxy)tetrahydro-2H-pyran-2-carboxylic acid]
Kd [1]: < 1000 nM
Kd [2]: < 1000 nM

O=C(Cc1ccc(OCc2cn(CCO)nn2)cc1)NC[C@@H](O)[C@@H](O)[C@@H]1O[C@@](OCc2ccccc2)(C(=O)O)C[C@H](O)[C@H]1NC(=O)CO [Compound 5, (2R,4S,5R,6R)-2-(benzyloxy)-6-((1R,2R)-1,2-dihydroxy-3-(2-(4-((1-(2-hydroxyethyl)-1H-1,2,3-triazol-4-yl)methoxy)phenyl)acetamido)propyl)-4-hydroxy-5-(2-hydroxyacetamido)tetrahydro-2H-pyran-2-carboxylic acid]
Kd [1]: 1000 to 10000 nM
Kd [2]: 1000 to 10000 nM

C#CCCCCCCC#Cc1ccc(CC(=O)NC[C@@H](O)[C@@H](O)[C@@H]2O[C@@](OCc3ccccc3)(C(=O)O)C[C@H](O)[C@H]2NC(=O)CO)cc1 [Compound 6, (2R,4S,5R,6R)-2-(benzyloxy)-6-((1R,2R)-3-(2-(4-(deca-1,9-diyn-1-yl)phenyl)acetamido)-1,2-dihydroxypropyl)-4-hydroxy-5-(2-hydroxyacetamido)tetrahydro-2H-pyran-2-carboxylic acid]
Kd [1]: 1000 to 10000 nM
Kd [2]: 1000 to 10000 nM

C#Cc1ccc(CC(=O)NC[C@@H](O)[C@@H](O)[C@@H]2O[C@@](OCCCCCCN)(C(=O)O)C[C@H](O)[C@H]2NC(=O)CO)cc1 [Compound 10, (2R,4S,5R,6R)-2-((6-aminohexyl)oxy)-6-((1R,2R)-3-(2-(4-ethynylphenyl)acetamido)-1,2-dihydroxypropyl)-4-hydroxy-5-(2-hydroxyacetamido)tetrahydro-2H-pyran-2-carboxylic acid]
Kd [1]: 1000 to 10000 nM
Kd [2]: 1000 to 10000 nM

O=C(Cc1ccc(-c2cn(CCO)nn2)cc1)NC[C@@H](O)[C@@H](O)[C@@H]1O[C@@](OCc2ccccc2)(C(=O)O)C[C@H](O)[C@H]1NC(=O)CO [Compound 2, (2R,4S,5R,6R)-2-(benzyloxy)-6-((1R,2R)-1,2-dihydroxy-3-(2-(4-(1-(2-hydroxyethyl)-1H-1,2,3-triazol-4-yl)phenyl)acetamido)propyl)-4-hydroxy-5-(2-hydroxyacetamido)tetrahydro-2H-pyran-2-carboxylic acid]
Kd [1]: 1000 to 10000 nM
Kd [2]: 1000 to 10000 nM
